Results published in the SangsterLogP compilation.

logP | Compound
3.96 | O=C1c2c(O)cccc2C(C(=O)Cc2ccc([N+](=O)[O-])cc2)c2cccc(O)c21
4.4 | O=C(O)c1ccc(C=C2c3cccc(O)c3C(=O)c3c(O)cccc32)cc1
5.67 | O=C1c2c(O)cccc2C(=CCCc2ccccc2)c2cccc(O)c21
4.68 | COc1cccc(C=CC(=O)C2c3cccc(O)c3C(=O)c3c(O)cccc32)c1
5.35 | COC(=O)c1ccc(C=C2c3cccc(O)c3C(=O)c3c(O)cccc32)cc1
5.05 | COc1ccc(C=C2c3cccc(O)c3C(=O)c3c(O)cccc32)cc1OC
4.24 | O=C1c2c(O)cccc2C(C(=O)Cc2ccccc2)c2cccc(O)c21
3.73 | O=C1c2c(O)cccc2C(C(=O)CCc2ccc(O)cc2)c2cccc(O)c21
4.21 | COc1ccc(CCC(=O)C2c3cccc(O)c3C(=O)c3c(O)cccc32)cc1OC
5.53 | COc1ccc(C=C2c3cccc(O)c3C(=O)c3c(O)cccc32)cc1
4.23 | O=C1c2c(O)cccc2C(C(=O)/C=C/c2ccc([N+](=O)[O-])cc2)c2cccc(O)c21
5.83 | Cc1ccc(C=C2c3cccc(O)c3C(=O)c3c(O)cccc32)cc1
2.61 | O=C1c2c(O)cccc2C(C(=O)Cc2cc(O)c(O)c(O)c2)c2cccc(O)c21
4.96 | O=C1c2c(O)cccc2C(=Cc2ccc([N+](=O)[O-])cc2)c2cccc(O)c21
4.58 | N#Cc1ccc(C=C2c3cccc(O)c3C(=O)c3c(O)cccc32)cc1
5.63 | O=C1c2c(O)cccc2C(C(=O)CCc2ccc(OCc3ccccc3)cc2)c2cccc(O)c21
3 | O=C1c2c(O)cccc2C(C(=O)Cc2ccc(O)c(O)c2)c2cccc(O)c21
5.43 | O=C1c2c(O)cccc2C(C(=O)Cc2ccc(OCc3ccccc3)c(OCc3ccccc3)c2)c2cccc(O)c21
5.48 | O=C1c2c(O)cccc2C(=Cc2ccc(C(F)(F)F)cc2)c2cccc(O)c21
5.01 | O=C1c2c(O)cccc2C(C(=O)Cc2ccc(OCc3ccccc3)cc2)c2cccc(O)c21
4.52 | O=C1c2c(O)cccc2C(=Cc2ccc(O)cc2)c2cccc(O)c21
4.6 | O=C1c2c(O)cccc2C(C(=O)/C=C/c2ccccc2)c2cccc(O)c21
4.63 | O=C1c2c(O)cccc2C(C(=O)CCc2ccccc2)c2cccc(O)c21
6.11 | O=C1c2c(O)cccc2C(C(=O)Cc2cc(OCc3ccccc3)c(OCc3ccccc3)c(OCc3ccccc3)c2)c2cccc(O)c21
4.74 | O=C1c2c(O)cccc2C(C(=O)CCCc2ccccc2)c2cccc(O)c21
5.33 | CC(C)(C)c1cc(CC(=O)C2c3cccc(O)c3C(=O)c3c(O)cccc32)cc(C(C)(C)C)c1O
4.72 | COc1ccc(CCC(=O)C2c3cccc(O)c3C(=O)c3c(O)cccc32)cc1
3.38 | O=C1c2c(O)cccc2C(C(=O)Cc2ccc(O)cc2)c2cccc(O)c21
3.32 | O=C1c2c(O)cccc2C(=Cc2cc(O)c(O)c(O)c2)c2cccc(O)c21
4.2 | COc1ccc(CC(=O)C2c3cccc(O)c3C(=O)c3c(O)cccc32)cc1
